Data reported in ChEMBL document CHEMBL1143233, “Synthesis, characterization and evaluation of benzimidazole derivative and its precursors as inhibitors of MDA-MB-231 human breast cancer cell proliferation” (2008).

Each molecule was assayed on MDA-MB-231 (assay: Antiproliferative activity against human MDA-MB-231 cells at 2 mM after 72 hrs by MTS/PMS assay). Details: MDA-MB-231, 72 h.

Compound	inhibition at 2000 µM [%]
N#Cc1ccc(NC(=O)c2ccc3c(c2)nc(-c2ccc(Cl)cc2Cl)n3Cc2ccc(F)cc2)cc1C(F)(F)F	26.1
N#Cc1ccc(NC(=O)c2ccc(NCc3ccc(F)cc3)c(N)c2)cc1C(F)(F)F	9.8
N#Cc1ccc(NC(=O)c2ccc(F)c([N+](=O)[O-])c2)cc1C(F)(F)F	60
N#Cc1ccc(NC(=O)c2ccc(NCc3ccc(F)cc3)c([N+](=O)[O-])c2)cc1C(F)(F)F	0
N#Cc1ccc(NC(=O)c2ccc(NCc3ccc(F)cc3)c(NC(=O)c3ccc(Cl)cc3Cl)c2)cc1C(F)(F)F	0
